# Test results taken from the NIST ThermoML archive (doi:10.1021/je0340809).
# Numbers after ± are expanded uncertainties.
# Settings: 101.33 kPa, Liquid
SMILES,mass density (298.15 K),speed of sound (298.15 K),viscosity (298.15 K),mass density (308.15 K),speed of sound (308.15 K),viscosity (308.15 K),mass density (318.15 K),viscosity (318.15 K),mass density (328.15 K),speed of sound (328.15 K),viscosity (328.15 K),mass density (338.15 K),speed of sound (338.15 K),viscosity (338.15 K),speed of sound (318.15 K)
O=C1CCCN1 [2-pyrrolidinone],1107.02 ± 2.4 kg/m3,1633.2 ± 6.6 m/s,13.36 ± 0.48 mPa·s,1099.15 ± 2.3 kg/m3,1603.1 ± 6.5 m/s,8.844 ± 0.34 mPa·s,1091.06 ± 2.2 kg/m3,6.259 ± 0.26 mPa·s,1082.87 ± 2.1 kg/m3,1549.7 ± 6.4 m/s,4.677 ± 0.2 mPa·s,1070.68 ± 1.9 kg/m3,1520.1 ± 6.3 m/s,3.451 ± 0.15 mPa·s,
CN1CCCC1=O [N-methylpyrrolidone],1028.31 ± 0.68 kg/m3,1545.1 ± 13 m/s,1.663 ± 0.078 mPa·s,1019.33 ± 0.63 kg/m3,1518.4 ± 12 m/s,1.365 ± 0.065 mPa·s,1010.11 ± 0.57 kg/m3,1.21 ± 0.058 mPa·s,1001.18 ± 0.51 kg/m3,1448.7 ± 12 m/s,1.117 ± 0.054 mPa·s,992.234 ± 0.56 kg/m3,1407.3 ± 12 m/s,0.986 ± 0.049 mPa·s,1477.8 ± 12 m/s
C=CN1CCCC1=O [N-vinylpyrrolidone],1042.04 ± 0.77 kg/m3,1530.1 ± 6.3 m/s,,1033.19 ± 0.71 kg/m3,1499.4 ± 6.2 m/s,2.942 ± 0.17 mPa·s,1024.38 ± 0.66 kg/m3,2.59 ± 0.15 mPa·s,1015.58 ± 0.6 kg/m3,1430.2 ± 6 m/s,2.259 ± 0.13 mPa·s,1006.77 ± 0.55 kg/m3,1403.3 ± 5.9 m/s,1.836 ± 0.11 mPa·s,1467.6 ± 6.1 m/s
O [water],,1498 ± 6.2 m/s,,,1519 ± 6.3 m/s,,,,,1545 ± 6.3 m/s,,,1551 ± 6.4 m/s,,1535.1 ± 6.3 m/s
